Assay results published in patent US20230212208A1, “Colour Tunable Luminescent Bidentate Platinum (II) Complexes for Probing Mismatch DNA” (THE UNIVERSITY OF HONG KONG, priority 2019, published 2023).
Read-outs that look alike come from different tables or passages of the source.

Assays:
[1] = test system: hairpin CC mismatched DNA with different adjacent base pairs; conditions: Pt(II) complex to DNA ratio 1.0
Description: Especially, the 5′- . . . […] GCA . . . -3′ (SEQ ID NO: 24), 5′- . . . GCC . . . -3′ (SEQ ID NO: 25), GCG . . . -3′ (SEQ ID NO: 26) and 5′- . . .

[2] = test system: cognate matched DNA (CG match, SEQ ID NO: 3); conditions: 20 μM in Tris buffer pH 7.1, 1-fold matched DNA
Experimental: The emission spectra for detection of CC mismatched DNA and matched DNA were determined (FIGS. 2A and 2B).

[3] = test system: TC hairpin mismatched DNA (SEQ ID NO: 6); conditions: 20 μM in Tris buffer, λex=410 nm, TC hairpin mismatch
Description: (§1) The emission increased around 3-fold for CA (SEQ ID NO: 5) and TC hairpin mismatched DNA (SEQ ID NO: 6), and 2-fold for AA hairpin mismatched DNA (SEQ ID NO: 7) (FIG. 5A).

[4] = test system: CA hairpin mismatched DNA (SEQ ID NO: 5); conditions: 20 μM in Tris buffer, λex=410 nm, CA hairpin mismatch
Description: as §1

[5] = test system: AA hairpin mismatched DNA (SEQ ID NO: 7); conditions: 20 μM in Tris buffer, λex=410 nm, AA hairpin mismatch
Description: as §1

Pt(II)(benzo[h]quinolone-1-benzyl-3-butylimidazolium bromide [PtCN2]
emission intensity at 497 nm over matched DNA ([1]; CC mismatch 5'-ACC-3' (SEQ ID NO: 17) vs matched DNA): 5 fold | emission intensity at 497 nm over matched DNA ([1]; CC mismatch 5'-GCA-3' (SEQ ID NO: 24) vs matched DNA): 5 fold | emission intensity at 497 nm over matched DNA ([1]; CC mismatch 5'-GCC-3' (SEQ ID NO: 25) vs matched DNA): 5 fold | emission intensity at 497 nm over matched DNA ([1]; CC mismatch 5'-GCG-3' (SEQ ID NO: 26) vs matched DNA): 5 fold | emission response at 497 nm, higher than matched DNA ([1]; CC mismatch 5'-GCT-3' (SEQ ID NO: 27) vs matched DNA (SEQ ID NO: 32)): 6 fold | emission enhancement at high-energy emission [2]: no significant emission enhancement | emission increase at high-energy fingerprint spectrum [3]: around 3 fold | emission increase at high-energy fingerprint spectrum [4]: around 3 fold | emission increase at high-energy fingerprint spectrum [5]: ~2 fold
